Measured values from US20240148821A1, “PHARMACEUTICAL USE OF CYCLIC PEPTIDE COMPOUND” (CHUGAI SEIYAKU KABUSHIKI KAISHA, priority 2021, published 2024).
Numbered stars: 1 amine (or outer) side, 2 acyl side, 3 side chain; on linkers, the order of the positions; unused ones are H or OH. Bridge positions count the residues as written; N and C are the ends. Square brackets hold non-standard residues; d marks the D form. Peptide text beside a SMILES is read from it. * marks the point of attachment. hPhe(3-Cl-4-CF3) = N[C@@H](CCc1ccc(C(F)(F)F)c(Cl)c1)C(=O)O; NMePhe(4-CF3) = CN[C@@H](Cc1ccc(C(F)(F)F)cc1)C(=O)O; hPhe(4-CF3) = N[C@@H](CCc1ccc(C(F)(F)F)cc1)C(=O)O; NMePhe(4-Cl) = CN[C@@H](Cc1ccc(Cl)cc1)C(=O)O; NMedβ3hAla = C[C@H](CC(=O)[*:2])N(C)[*:1]; Phe(3-I) = N[C@@H](Cc1cccc(I)c1)C(=O)O; Phe(4-Me) = Cc1ccc(C[C@H](N)C(=O)O)cc1; NMeGly(cBu) = CN[C@H](C(=O)O)C1CCC1; NMeCha = CN[C@@H](CC1CCCCC1)C(=O)O; hhPhe = N[C@@H](CCCc1ccccc1)C(=O)O; X4 = C#CC[C@H](CC(=O)[*:2])N[*:1]; Hyp = O=C(O)[C@@H]1C[C@@H](O)CN1; NEtLeu = CCN[C@@H](CC(C)C)C(=O)O; NMeChg = CN[C@H](C(=O)O)C1CCCCC1; NMeF = CN[C@@H](Cc1ccccc1)C(=O)O; NMeI = CC[C@H](C)[C@H](NC)C(=O)O; NMeT = CN[C@H](C(=O)O)[C@@H](C)O; NMeD = CN[C@@H](CC(=O)O)C(=O)O; NMeL = CN[C@@H](CC(C)C)C(=O)O; Chg = N[C@H](C(=O)O)C1CCCCC1; NMeV = CN[C@H](C(=O)O)C(C)C; d(β3hA) = C[C@@H](N)CC(=O)O; NMeA = CN[C@@H](C)C(=O)O; Piperidide = C1CCN(*)CC1; Pyrrolidide = C1CCN(*)C1; Ac5c = NC1(C(=O)O)CCCC1; Aze = O=C(O)[C@@H]1CCN1; Sar = CNCC(=O)O

target: protein-protein interaction between Kras and SOS1 (biotin-tagged human Kras loaded with GDP, His-tagged human SOS1) (Homo sapiens (Human), UniProt P01116, G12D); assay: Protein-protein interaction inhibition between Kras and SOS1 (KrasG12D-SOS PPI) using AlphaScreen; assay type: biochemical; details: AlphaScreen; biotin-tagged human Kras loaded with GDP, His-tagged human SOS1; read-out: KRAS G12D-SOS PPI IC50;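 also: kras produced in E. coli, Ni-coupled donor beads and streptavidin acceptor beads, excitation 680 nm with emission detected at 520–620 nm via singlet oxygen transfer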

| SMILES | IC50 |
| --- | --- |
| CCO[C@@H]1C[C@H]2C(=O)N(C)[C@@H](Cc3ccccc3)C(=O)N(C)[C@@H](CC(C)C)C(=O)N[C@H](C(=O)N3CCCC3)CC(=O)N(C)[C@@H](C)C(=O)N[C@@H]([C@@H](C)CC)C(=O)N(C)CC(=O)N(C)CC(=O)N(C)[C@@H](Cc3ccc(Cl)cc3)C(=O)N(C)CC(=O)N[C@@H](Cc3cccc(I)c3)C(=O)N2C1 [Compound 634] ([NMeA]I[Sar][Sar][NMePhe(4-Cl)][Sar][Phe(3-I)][Hyp](Et)[NMeF][NMeL]D-Pyrrolidide; lactam N-11) | 260 nM |
| CC[C@H](C)[C@@H]1NC(=O)[C@H](CC(C)C)N(C)C(=O)C[C@@H](C(=O)N2CCCCC2)N(C)C(=O)[C@H]([C@@H](C)OC)N(C)C(=O)C2(CCCC2)NC(=O)[C@@H]2CCCN2C(=O)[C@H](CCc2ccc(C(F)(F)F)c(Cl)c2)NC(=O)CN(C)C(=O)[C@H](CC2CCCCC2)N(C)C(=O)[C@@H]2CCN2C(=O)[C@H](C)N(C)C1=O [Compound 639] ([NMeL]I[NMeA][Aze][NMeCha][Sar][hPhe(3-Cl-4-CF3)]P[Ac5c][NMeT](Me)[NMeD]-Piperidide; lactam N-11) | 14 nM |
| CC(C)C[C@H]1C(=O)N[C@@H](C2CCCCC2)C(=O)N(C)[C@@H](C)C(=O)N2CC[C@H]2C(=O)N(C)[C@@H](CC2CCCCC2)C(=O)N(C)CC(=O)N[C@@H](CCc2ccc(C(F)(F)F)c(Cl)c2)C(=O)N2CCC[C@H]2C(=O)NC2(CCCC2)C(=O)N(C)[C@@H](C(C)C)C(=O)N(C)[C@H](C(=O)N2CCCCC2)CC(=O)N1C [Compound 642] ([NMeL][Chg][NMeA][Aze][NMeCha][Sar][hPhe(3-Cl-4-CF3)]P[Ac5c][NMeV][NMeD]-Piperidide; lactam N-11) | 54 nM |
| CCO[C@@H]1C[C@H]2C(=O)NC3(CCCC3)C(=O)N(C)[C@@H](C3CCCCC3)C(=O)N(C)[C@H](C)CC(=O)N(C)[C@@H](CC(C)C)C(=O)N[C@@H]([C@@H](C)CC)C(=O)N(C)[C@@H](C)C(=O)N3CC[C@H]3C(=O)N(C)[C@@H](Cc3ccc(C(F)(F)F)cc3)C(=O)N(C)CC(=O)N[C@@H](CCc3ccc(C(F)(F)F)c(Cl)c3)C(=O)N2C1 [Compound 652] (cyclo([Ac5c][NMeChg][NMedβ3hAla][NMeL]I[NMeA][Aze][NMePhe(4-CF3)][Sar][hPhe(3-Cl-4-CF3)][Hyp](Et))) | 4.3 nM |
| CC[C@H](C)[C@@H]1NC(=O)[C@H](C)N(C)C(=O)C[C@@H](C(=O)N2CCCCC2)N(C)C(=O)[C@H](C(C)C)N(C)C(=O)C2(CCCC2)NC(=O)[C@@H]2CCCN2C(=O)[C@H](CCCc2ccccc2)NC(=O)CN(C)C(=O)[C@H](CC2CCCCC2)N(C)C(=O)[C@@H]2CCN2C(=O)[C@H](C)N(C)C1=O [Compound 659] ([NMeA]I[NMeA][Aze][NMeCha][Sar][hhPhe]P[Ac5c][NMeV][NMeD]-Piperidide; lactam N-11) | 130 nM |
| CC[C@H](C)[C@@H]1NC(=O)[C@H](CC(C)C)N(C)C(=O)C[C@@H](C(=O)N(C)C)N(C)C(=O)[C@H]([C@@H](C)CC)N(C)C(=O)[C@H](C(C)C)NC(=O)[C@@H]2CCCN2C(=O)[C@H](CCc2ccc(C(F)(F)F)c(Cl)c2)NC(=O)CN(C)C(=O)[C@H](Cc2ccc(C)cc2)NC(=O)[C@@H]2CCN2C(=O)[C@H](C)N(C)C1=O [Compound 660] ([NMeL]I[NMeA][Aze][Phe(4-Me)][Sar][hPhe(3-Cl-4-CF3)]PV[NMeI][NMeD]-NMe2; lactam N-11) | 210 nM |
| CC[C@H](C)[C@@H]1NC(=O)[C@H](CC(C)C)N(C)C(=O)C[C@@H](C)NC(=O)[C@H](C(C)C)N(C)C(=O)C2(CCCC2)NC(=O)[C@@H]2CCCN2C(=O)[C@H](CCc2ccc(C(F)(F)F)c(Cl)c2)NC(=O)CN(C)C(=O)[C@H](CC2CCCCC2)N(C)C(=O)[C@@H]2CCN2C(=O)CN(C)C1=O [Compound 663] (cyclo([Ac5c][NMeV][d(β3hA)][NMeL]I[Sar][Aze][NMeCha][Sar][hPhe(3-Cl-4-CF3)]P)) | 16 nM |
| CC[C@H](C)[C@@H]1NC(=O)[C@H](CC(C)C)N(CC)C(=O)C[C@@H](C(=O)N2CCCCC2)N(C)C(=O)[C@H](C(C)C)N(C)C(=O)C2(CCCC2)NC(=O)[C@@H]2CCCN2C(=O)[C@H](CCc2ccc(C(F)(F)F)c(Cl)c2)NC(=O)CN(C)C(=O)[C@H](CC2CCCCC2)N(C)C(=O)[C@@H]2CCN2C(=O)[C@H](C)N(C)C1=O [Compound 667] ([NEtLeu]I[NMeA][Aze][NMeCha][Sar][hPhe(3-Cl-4-CF3)]P[Ac5c][NMeV][NMeD]-Piperidide; lactam N-11) | 5.1 nM |
| C#CC[C@@H]1CC(=O)N(C)[C@@H](C(C)C)C(=O)N[C@@H]([C@@H](C)CC)C(=O)N(C)CC(=O)N(C)CC(=O)N(C)[C@@H](Cc2ccc(Cl)cc2)C(=O)N(C)CC(=O)N[C@@H](CCc2ccc(C(F)(F)F)cc2)C(=O)N(C)[C@@H](CC(C)C)C(=O)NC2(CCCC2)C(=O)N(C)[C@@H](CC(C)C)C(=O)N1 [Compound 669] (cyclo([Ac5c][NMeL][X4][NMeV]I[Sar][Sar][NMePhe(4-Cl)][Sar][hPhe(4-CF3)][NMeL])) | 220 nM |
| CC[C@H](C)[C@@H]1NC(=O)[C@H](CC(C)C)N(C)C(=O)C[C@@H](C(=O)N2CCCCC2)N(C)C(=O)[C@H](C2CCC2)N(C)C(=O)C2(CCCC2)NC(=O)[C@@H]2CCCN2C(=O)[C@H](CCc2ccc(C(F)(F)F)c(Cl)c2)NC(=O)CN(C)C(=O)[C@H](CC2CCCCC2)N(C)C(=O)[C@@H]2CCN2C(=O)[C@H](C)N(C)C1=O [Compound 672] ([NMeL]I[NMeA][Aze][NMeCha][Sar][hPhe(3-Cl-4-CF3)]P[Ac5c][NMeGly(cBu)][NMeD]-Piperidide; lactam N-11) | 2.5 nM |
